Assay results from patent publication US7534418B2, “Imaging agents” (The Regents of the University of Michigan, priority 2004, dated 2009).
Entries after “also recorded” stand apart in the source; their conditions may differ.

Test system: cardiac sympathetic neurons of the isolated rat heart
Assay: Kinetics of [11C]phenethylguanidines in isolated perfused working rat heart (neuronal uptake and clearance)
Details: for Major Clearance Rate T1/2 / half-life: rat
Source text: To evaluate radiolabeled phenethylguanidines as imaging agents for nuclear medicine, several [^11C]-labeled phenethylguanidines were synthesized and initial bioevaluations of these compounds performed using an isolated rat heart preparation. […] [^11C]-labeling was used to initially assess the imaging properties of these compounds for the following reasons. A radiosynthetic method for making [^11C]guanidines (see, e.g., Westerberg, G. and Langstrom, B. (1997) J. Labeled Compds. Radiopharm. 39:525-529; herein incorporated by reference in its entirety), allowed efficient synthesis and evaluation of these compounds.
The present invention is not limited to a particular mechanism. Indeed, an understanding of the mechanism is not necessary to practice the present invention. […] Provided below is a detailed description of how these specific kinetic properties offer a significant advantage over currently available sympathetic nerve radiotracers.

Compound | Major Clearance Rate T1/2 | Neuronal Uptake Rate Kup (isolated rat heart) [mL/min/g] | neuronal retention / clearance (in words) (isolated rat heart) | other results
NC(N)=NCc1cccc(I)c1 [MIBG, [^11C]meta-iodobenzylguanidine, reference compound] | – | 3.65 | – | neuronal uptake rate (in words) (isolated rat heart): very rapid
N=[11C](N)NC[C@H](O)c1ccc(O)c(O)c1 [I-8, N-[^11C]guanyl-norepinephrine] | – | 0.09 | – | –
N=[11C](N)NCCc1ccccc1 [I-1, [^11C]phenethylguanidine] | 3.33 h | 1.56 | – | –
C[C@H](N[11C](=N)N)[C@H](O)c1cccc(O)c1 [I-9, N-[^11C]guanyl-(−)-metaraminol] | 20.18 h | 0.08 | very long neuronal retention times | neuronal uptake rate (in words) (isolated rat heart): slow and slower than all currently used tracers
N=[11C](N)NC[C@H](O)c1ccccc1 [I-2, [^11C](−)-β-hydroxyphenethylguanidine] | 19.3 h | 0.42 | – | –
2-[^18F]fluoro-2-deoxy-D-glucose [FDG, reference compound] | – | – | – | myocardial uptake rate (isolated rat heart, 10 mM glucose, no insulin, 10 min constant infusion, FIG. 5): 0.31 ml/min/g wet
C[C@H](N[11CH3])[C@H](O)c1cccc(O)c1 [HED, [^11C]meta-hydroxyephedrine, reference compound] | – | 2.35 | – | –
CNC[C@H](O)c1cccc(O)c1 [PHEN, [^11C]phenylephrine, reference compound] | – | 0.72 | – | half-life: 1.63 h
N=[11C](N)NCCc1cccc(O)c1 [I-4, [^11C]meta-hydroxyphenethylguanidine] | trapped | 2.12 | efficient vesicular storage; also recorded: very long retention times | neuronal uptake rate (in words) (isolated rat heart): fast and rapid
NC[C@H](O)c1ccc(O)c(O)c1 [NE, [^3H]norepinephrine, reference compound] | – | 4.44 | – | half-life: > 16.7 h
CNC[C@H](O)c1ccc(O)c(O)c1 [EPI, [^11C]epinephrine, reference compound] | – | 0.60 | – | half-life: 26.3 h
N=[11C](N)NCCc1ccc(O)c(O)c1 [I-6, [^11C]3,4-dihydroxyphenethylguanidine] | 23.52 h | 1.07 | – | –
N=[11C](N)NCC(O)c1cccc(O)c1 (stereo not drawn) [I-7, N-[^11C]guanyl-meta-octopamine] | 216.67 h | 0.28 | very long neuronal retention times | neuronal uptake rate (in words) (isolated rat heart): slow and slower than all currently used tracers; neuronal uptake rate (isolated rat heart, 10 min constant infusion, FIG. 5): 0.28 ml/min/g wet; neuronal retention / clearance (in words) (isolated rat heart, listed as GMO): well retained; also recorded: neuronal trapping of GMO is more efficient than the myocardial trapping of FDG
COc1ccc(CCN[11C](=N)N)cc1 [I-3, [^11C]para-methoxy-phenethylguanidine] | 2.28 h | 0.73 | – | –
N=[11C](N)NCCc1ccc(O)cc1 [I-5, [^11C]para-hydroxyphenethylguanidine] | 48.13 h | 1.92 | efficient vesicular storage; also recorded: very long retention times | neuronal uptake rate (in words) (isolated rat heart): fast and rapid; neuronal retention / clearance (in words) (isolated rat heart, listed as PHPG): well retained

Further lines, with some results ahead:

Major Clearance Rate T1/2 | Compound | Neuronal Uptake Rate Kup (isolated rat heart) [mL/min/g] | neuronal retention / clearance (in words) (isolated rat heart) | other results
2.25 h | N=[11C](N)NCCc1ccccc1F [II-3, [^11C]ortho-fluorophenethylguanidine] | 1.76 | – | –
trapped | N=[11C](N)NCCc1ccc(F)c(O)c1 [II-4, [^11C]para-fluoro-meta-hydroxy-phenethylguanidine] | 0.77 | very long neuronal retention times | –
20.12 h | N=[11C](N)NCCc1cc(O)ccc1F [II-5, [^11C]ortho-fluoro-meta-hydroxy-phenethylguanidine] | 0.54 | very long neuronal retention times | –
2.38 h | N=[11C](N)NCCc1cccc(I)c1 [III-1, [^11C]meta-iodophenethylguanidine] | 1.10 | approximately the same rate as MIBG | neuronal uptake rate, times slower than MIBG (isolated rat heart, relative to MIBG): around 3 times
4.43 h | N=[11C](N)NCCc1ccc(F)cc1 [II-2, [^11C]para-fluorophenethylguanidine] | 0.63 | – | –
1.93 h | N=[11C](N)NCCc1cccc(F)c1 [II-1, [^11C]meta-fluorophenethylguanidine] | 0.24 | – | –
